Assays:
Format in all cases: cell-based
human PPAR alpha = target: T1, human PPAR alpha (Homo sapiens, UniProt Q07869); experiment: PPAR transient transfection (transactivation) assay in CV-1 cells, hPPAR alpha; details: PPAR LBD-GAL4 chimera, SPAP reporter, 24 h with compound, read-out: human αEC50
T1 construct: expressed in transfected cells; host or cells: CV-1 cells
T1 sequence (Q07869 239-466 limits assumed): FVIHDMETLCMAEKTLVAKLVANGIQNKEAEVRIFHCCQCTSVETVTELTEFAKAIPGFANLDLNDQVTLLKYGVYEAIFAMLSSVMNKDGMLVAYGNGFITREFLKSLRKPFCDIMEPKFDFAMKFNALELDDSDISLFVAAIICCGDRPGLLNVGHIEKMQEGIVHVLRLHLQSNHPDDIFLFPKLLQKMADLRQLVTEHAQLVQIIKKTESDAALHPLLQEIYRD
Text: Compounds were screened for functional potency in transient transfection assays in CV-1 cells for their ability to activate the PPAR subtypes (transactivation assay). A previously established chimeric receptor system was utilized to allow comparison of the relative transcriptional activity of the receptor subtypes on the same target gene and to prevent endogenous receptor activation from complicating the interpretation of results. See, for example, Lehmann, J. M.; Moore, L. B.; Smith-Oliver, T. A.; Wilkison, W. O.; Willson, T. M.; Kliewer, S. A., An antidiabetic thiazolidinedione is a high affinity ligand for peroxisome proliferator-activated receptor γ (PPARγ), J. Biol. Chem., 1995, 270, 12953-6. The ligand binding domains for murine and human PPAR alpha, PPAR gamma, and PPAR delta were each fused to the yeast transcription factor GAL4 DNA binding domain. CV-1 cells were transiently transfected with expression vectors for the respective PPAR chimera along with a reporter construct containing five copies of the GAL4 DNA binding site driving expression of secreted placental alkaline phosphatase (SPAP) and β-galactosidase. After 16 h, the medium was exchanged to DME medium supplemented with 10% delipidated fetal calf serum and the test compound at the appropriate concentration. After an additional 24 h, cell extracts were prepared and assayed for alkaline phosphatase and β-galactosidase activity. […] Rosiglitazone (BRL 49653) was used as a positive control in the hPPAR gamma assay. The positive control in the hPPAR alpha assays was 2-(2-methyl-3-[3-{3-(4-cyclohexylamino)-[6-(4-fluorophenylpiperazin-1-yl)][1,3,5]triazin-2-ylamino}propyl]phenylthio)-2-methylpropionic acid. The positive control for PPAR delta assays was 2-{2-methyl-4-[({4-methyl-2-{trifluoromethyl)phenyl]-1,3-thiazol-5-yl}methyl)sulfanyl]phenoxy}acetic acid.

human PPAR delta = target: T2, human PPAR delta (Homo sapiens, UniProt Q03181); experiment: PPAR transient transfection (transactivation) assay in CV-1 cells, PPAR delta; details: PPAR LBD-GAL4 chimera, SPAP reporter, 24 h with compound, read-out: human δEC50
T2 construct: expressed in transfected cells; host or cells: CV-1 cells
T2 sequence (Q03181 211-439 limits assumed): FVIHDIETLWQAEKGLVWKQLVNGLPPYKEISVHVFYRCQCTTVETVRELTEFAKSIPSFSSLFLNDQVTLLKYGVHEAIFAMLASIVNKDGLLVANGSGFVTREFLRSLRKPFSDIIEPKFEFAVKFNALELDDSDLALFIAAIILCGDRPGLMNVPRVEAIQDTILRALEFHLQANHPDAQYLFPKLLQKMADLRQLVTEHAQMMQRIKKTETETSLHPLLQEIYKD
Text: (§1) Compounds were screened for functional potency in transient transfection assays in CV-1 cells for their ability to activate the PPAR subtypes (transactivation assay). A previously established chimeric receptor system was utilized to allow comparison of the relative transcriptional activity of the receptor subtypes on the same target gene and to prevent endogenous receptor activation from complicating the interpretation of results. See, for example, Lehmann, J. M.; Moore, L. B.; Smith-Oliver, T. A.; Wilkison, W. O.; Willson, T. M.; Kliewer, S. A., An antidiabetic thiazolidinedione is a high affinity ligand for peroxisome proliferator-activated receptor γ (PPARγ), J. Biol. Chem., 1995, 270, 12953-6. The ligand binding domains for murine and human PPAR alpha, PPAR gamma, and PPAR delta were each fused to the yeast transcription factor GAL4 DNA binding domain. CV-1 cells were transiently transfected with expression vectors for the respective PPAR chimera along with a reporter construct containing five copies of the GAL4 DNA binding site driving expression of secreted placental alkaline phosphatase (SPAP) and β-galactosidase. After 16 h, the medium was exchanged to DME medium supplemented with 10% delipidated fetal calf serum and the test compound at the appropriate concentration. After an additional 24 h, cell extracts were prepared and assayed for alkaline phosphatase and β-galactosidase activity. Alkaline phosphatase activity was corrected for transfection efficiency using the β-galactosidase activity as an internal standard (see, for example, Kliewer, S. A., et. al. Cell 83, 813-819 (1995)). Rosiglitazone (BRL 49653) was used as a positive control in the hPPAR gamma assay. The positive control in the hPPAR alpha assays was 2-(2-methyl-3-[3-{3-(4-cyclohexylamino)-[6-(4-fluorophenylpiperazin-1-yl)][1,3,5]triazin-2-ylamino}propyl]phenylthio)-2-methylpropionic acid. The positive control for PPAR delta assays was 2-{2-methyl-4-[({4-methyl-2-{trifluoromethyl)phenyl]-1,3-thiazol-5-yl}methyl)sulfanyl]phenoxy}acetic acid.

human PPAR gamma = target: T3, human PPAR gamma (Homo sapiens, UniProt P37231); experiment: PPAR transient transfection (transactivation) assay in CV-1 cells, hPPAR gamma; details: PPAR LBD-GAL4 chimera, SPAP reporter, 24 h with compound, read-out: human γEC50
T3 construct: expressed in transfected cells; host or cells: CV-1 cells
T3 sequence (P37231 238-503 limits assumed): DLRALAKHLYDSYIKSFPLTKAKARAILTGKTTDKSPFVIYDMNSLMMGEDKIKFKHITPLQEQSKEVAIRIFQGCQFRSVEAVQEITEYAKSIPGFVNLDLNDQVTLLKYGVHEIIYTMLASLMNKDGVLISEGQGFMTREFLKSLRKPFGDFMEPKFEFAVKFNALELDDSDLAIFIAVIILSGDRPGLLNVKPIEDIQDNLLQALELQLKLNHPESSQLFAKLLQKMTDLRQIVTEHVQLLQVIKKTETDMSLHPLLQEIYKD
Text: as §1

EC50 (human PPAR alpha) [nM]	EC50 (human PPAR delta) [nM]	EC50 (human PPAR gamma) [nM]	Structure (SMILES)
122	≥ 10000	≥ 10000	Cc1nc(-c2ccccc2)sc1C(=O)NCc1ccc(OC(C)(C)C(=O)O)cc1 [Example 29, 2-Methyl-2-[4-{[(4-methyl-2-phenylthiazol-5-ylcarbonyl)amino]methyl}phenoxy]propionic Acid]
14	5350	≥ 10000	Cc1nc(-c2ccc(Cl)cc2)sc1C(=O)NCc1ccc(OC(C)(C)C(=O)O)cc1 [Example 33, 2-Methyl-2-[4-{[(4-methyl-2-[4-chlorophenyl]-thiazol-5-ylcarbonyl)amino]methyl}phenoxy]propionic Acid]
4	4590	≥ 10000	Cc1nc(-c2ccc(OC(F)(F)F)cc2)sc1C(=O)NCc1ccc(OC(C)(C)C(=O)O)cc1 [Example 35, 2-Methyl-2-[4-{[(4-methyl-2-[4-trifluoromethoxyphenyl]-thiazol-5-ylcarbonyl)amino]methyl}phenoxy]propionic Acid]
20	≥ 10000	≥ 10000	COc1ccc(-c2nc(C)c(C(=O)NCc3ccc(OC(C)(C)C(=O)O)cc3)s2)cc1 [Example 37, 2-Methyl-2-[4-{[(4-methyl-2-[4-methoxyphenyl]-thiazol-5-ylcarbonyl)amino]methyl}phenoxy]propionic Acid]
36	2480	≥ 10000	C#Cc1ccc(-c2nc(C)c(C(=O)NCc3ccc(OC(C)(C)C(=O)O)cc3)s2)cc1 [Example 39, 2-Methyl-2-[4-{[(4-methyl-2-[4-acetylenylphenyl]-thiazol-5-ylcarbonyl)amino]methyl}phenoxy]propionic Acid]
5	≥ 10000	832	CC(C)(Oc1ccc(CNC(=O)c2sc(-c3ccc(C(F)(F)F)cc3)nc2C(F)(F)F)cc1)C(=O)O [Example 41, 2-Methyl-2-[4-{[(4-trifluoromethyl-2-[4-trifluoromethylphenyl]-thiazol-5-ylcarbonyl)amino]methyl}phenoxy]propionic Acid]
400	1640	≥ 10000	Cc1nc(-c2ccc(C(F)(F)F)cc2)oc1C(=O)NCc1ccc(OC(C)(C)C(=O)O)cc1 [Example 45, 2-Methyl-2-[4-{[(4-methyl-2-[4-trifluoromethylphenyl]-oxazol-5-ylcarbonyl)amino]methyl}phenoxy]propionic Acid]

Further lines, the compound ahead of its results:

Structure (SMILES)	EC50 (human PPAR alpha) [nM]	EC50 (human PPAR delta) [nM]	EC50 (human PPAR gamma) [nM]
CCOC(=O)C(C)(C)Oc1ccc(CNC(=O)c2sc(-c3ccc(C(F)(F)F)cc3)nc2C)cc1 [Example 1, 2-Methyl-2-[4-{[(4-methyl-2-[4-trifluoromethylphenyl]thiazol-5-ylcarbonyl)amino]methyl}phenoxy]propionic Acid Ethyl Ester]	17	≥ 10000	≥ 10000
Cc1nc(-c2ccc(C(F)(F)F)cc2)sc1C(=O)NCc1ccc(OC(C)(C)C(=O)O)cc1 [Example 2, 2-Methyl-2-[4-{[(4-methyl-2-[4-trifluoromethylphenyl]-thiazol-5-ylcarbonyl)amino]methyl}phenoxy]propionic Acid]		2950	≥ 10000
Cc1nc(-c2ccc(C(F)(F)F)cc2)sc1C(=O)N(C)Cc1ccc(OC(C)(C)C(=O)O)cc1 [Example 6, N-Methyl-2-methyl-2-[4-{[(4-methyl-2-[4-trifluoromethylphenyl]-thiazol-5-ylcarbonyl)amino]methyl}phenoxy]propionic Acid]	230	≥ 10000	≥ 10000
Cc1nc(-c2ccc(C(F)(F)F)cc2)sc1C(=O)NCCc1ccc(OC(C)(C)C(=O)O)cc1 [Example 10, 2-Methyl-2-[4-{[(4-methyl-2-[4-trifluoromethylphenyl]-thiazol-5-ylcarbonyl)amino]ethyl}phenoxy]propionic Acid]	108	≥ 10000	≥ 10000
Cc1nc(-c2ccc(C(C)(C)C)cc2)sc1C(=O)NCc1ccc(OC(C)(C)C(=O)O)cc1 [Example 13, 2-Methyl-2-[4-{[(4-methyl-2-[4-tertbutylphenyl]-thiazol-5-ylcarbonyl)amino]methyl}phenoxy]propionic Acid]	5	≥ 10000	850
Cc1nc(-c2ccc(C(C)C)cc2)sc1C(=O)NCc1ccc(OC(C)(C)C(=O)O)cc1 [Example 15, 2-Methyl-2-[4-{[(4-methyl-2-[4-isopropylphenyl]-thiazol-5-ylcarbonyl)amino]methyl}phenoxy]propionic Acid]	1	4370	2640
Cc1nc(-c2ccc([N+](=O)[O-])cc2)sc1C(=O)NCc1ccc(OC(C)(C)C(=O)O)cc1 [Example 17, 2-Methyl-2-[4-{[(4-methyl-2-[4-nitrophenyl]-thiazol-5-ylcarbonyl)amino]methyl}phenoxy]propionic Acid]	27	≥ 10000	≥ 10000
Cc1nc(-c2ccc(Cl)c(Cl)c2)sc1C(=O)NCc1ccc(OC(C)(C)C(=O)O)cc1 [Example 21, 2-Methyl-2-[4-{[(4-methyl-2-[3,4-dichlorophenyl]-thiazol-5-ylcarbonyl)amino]methyl}phenoxy]propionic Acid]	28	≥ 10000	≥ 10000
Cc1nc(-c2ccc(C(F)(F)F)c(F)c2)sc1C(=O)NCc1ccc(OC(C)(C)C(=O)O)cc1 [Example 23, 2-Methyl-2-[4-{[(4-methyl-2-[3-fluoro-4-trifluoromethylphenyl]-thiazol-5-ylcarbonyl)amino]methyl}phenoxy]propionic Acid]	7	9190	≥ 10000
Cc1nc(-c2ccc(Br)cc2)sc1C(=O)NCc1ccc(OC(C)(C)C(=O)O)cc1 [Example 25, 2-Methyl-2-[4-{[(4-methyl-2-[4-bromophenyl]-thiazol-5-ylcarbonyl)amino]methyl}phenoxy]propionic Acid]	10	2700	≥ 10000
CCc1ccc(-c2nc(C)c(C(=O)NCc3ccc(OC(C)(C)C(=O)O)cc3)s2)cc1 [Example 27, 2-Methyl-2-[4-{[(4-methyl-2-[4-ethylphenyl]-thiazol-5-ylcarbonyl)amino]methyl}phenoxy]propionic Acid]	2	4080	8820

Reference: patent US6518290B1, “Substituted oxazoles and thiazoles derivatives as HPPAr alpha activators” (priority 1999, dated 2003)
